A melting point compilation (Tetko et al.)

Conditions: a range is the spread between reports

Row | Compound | melting point
1 | C1=Cc2ccccc2C1 | -2 to -1.8 °C
2 | NC(=O)c1cccc([N+](=O)[O-])c1 | 142 to 143 °C
3 | CCOc1ccc(I)cc1 | 28 to 29 °C
4 | CC(=O)OC(OC(C)=O)c1ccc([N+](=O)[O-])o1 | 90 to 91 °C
5 | CC(=O)Oc1ccc(C(=O)O)cc1 | 192 to 194 °C
6 | CCOC(=O)c1ccc([N+](=O)[O-])cc1 | 57 to 58 °C
7 | CC1(C)CC=CCC1 | -74.4 to -74 °C
8 | O=Cc1cc2c(cc1[N+](=O)[O-])OCO2 | 93.5 to 95 °C
9 | O=C1CCCCCCCCC1 | 24 to 28 °C
10 | O=[N+]([O-])c1cc([N+](=O)[O-])c2ccccc2c1O | 131 to 132 °C
11 | O=C(O)c1cccc(F)c1 | 123 to 124 °C
12 | Cc1cc([N+](=O)[O-])ccc1N | 132 to 134 °C
13 | ClCc1cccc(CCl)c1 | 34.2 to 36 °C
14 | Cc1cc(=O)cc(C)o1 | 132 to 134 °C
15 | Nc1ccc(O)cc1 | 188 to 189 °C
16 | FC(Cl)(Cl)Cl | -111 to -110 °C
17 | CC(=O)n1ccnc1 | 101 to 102 °C
18 | COc1cc([N+](=O)[O-])ccc1N | 140 to 141 °C
19 | N#CCC(N)=O | 120 to 122 °C
20 | CCCCCCCCCCC=O | -4 to 0 °C
21 | Nc1ccncc1N | 216 to 220 °C
22 | CS(=O)c1ccccc1 (stereo not given) | 29 to 32 °C

Row | Compound | melting point
23 | O=C1CCC(=O)N1Cl | 148 to 150 °C
24 | CC(C)(C)C(O)C(Oc1ccc(Cl)cc1)n1cncn1 (stereo not given) | 134 to 138 °C
25 | BrCc1ccc(Br)cc1 | 62 to 63 °C
26 | N#Cc1ccccc1 | -13 to -12.7 °C
27 | Oc1ccc(-c2ccc(O)cc2)cc1 | 278 to 283 °C
28 | c1csc(-c2ccc(-c3cccs3)s2)c1 | 92 to 93.5 °C
29 | N#Cc1c2ccccc2cc2ccccc12 | 175 to 177 °C
30 | CC=C(C)CCC | -119 to -118 °C
31 | O=Cc1ccc([N+](=O)[O-])o1 | 35.5 to 36 °C
32 | C1=CCC=CC1 | -49.2 to -49 °C
33 | Oc1cccc(Br)c1 | 30 to 33 °C
34 | O=C(Nc1ccccc1)c1ccccc1 | 163 to 164 °C
35 | Nc1ccccc1-c1ccccc1 | 49 to 51.5 °C
36 | CC(=O)c1ccc(I)cc1 | 83 to 86 °C
37 | N#Cc1ccccc1-c1ccccc1 | 38 to 41 °C
38 | O=C(O)c1c(F)cccc1Cl | 158 to 160 °C
39 | Nc1ccc(Cl)cc1[N+](=O)[O-] | 116 to 118 °C
40 | O=C(c1ccccc1)C(Cl)c1ccccc1 (stereo not given) | 67 to 68.5 °C
41 | Nc1cc(Cl)c(Cl)cc1Cl | 94 to 96.5 °C
42 | COc1ccc(C(C)=O)c(O)c1 | 49 to 52.5 °C
43 | N#CCc1cccc(Cl)c1 | 11.5 to 12 °C
44 | O=C(Cl)CCC(=O)Cl | 17 to 20 °C

Row | Compound | melting point
45 | OCCCCCO | -18 to -16 °C
46 | O=C(O)c1ccc(F)cc1F | 188 to 189 °C
47 | N#Cc1ccc(Cl)cc1 | 92 to 95 °C
48 | Fc1ccc(Cl)cc1 | -26.8 to -22 °C
49 | NC(=O)CCl | 118 to 121 °C
50 | CC(C)(O)C(=O)O | 79 to 82.5 °C
51 | ClCCOc1ccccc1 | 24 to 28 °C
52 | Cc1c[nH]cn1 | 51 to 56 °C
53 | C=CCC(C)CC (stereo not given) | -142 to -141 °C
54 | CC(C)(CC(=O)O)CC(=O)O | 101 to 104 °C
55 | CCCCC(CC)COP(=O)(OCC(CC)CCCC)OCC(CC)CCCC (stereo not given) | -74 to -70 °C
56 | N#Cc1ccccc1C(N)=O | 172 to 173 °C
57 | CCCCCCCCCCCCCCCO | 45.5 to 46 °C
58 | CCC(C)(C)CC | -135 to -134 °C
59 | O=[N+]([O-])c1ccc(Nc2ccccc2)c([N+](=O)[O-])c1 | 159 to 160 °C
60 | CCCC(N)C(=O)O (racemic) | 303 to 307 °C
61 | CCCCCC(=O)OC(=O)CCCCC | -41 to -40 °C
62 | Oc1cccc(Cl)c1 | 32 to 34 °C
63 | FC(F)(F)F | -184 °C
64 | CN(C)c1ccc(C(=O)O)cc1 | 242 to 243 °C
65 | CCc1cccc(-c2ccccc2)c1 | -28 to -27.5 °C
66 | Nc1ccc(F)c([N+](=O)[O-])c1 | 96 to 97.5 °C

Row | Compound | melting point
67 | CN1CCN(C2=Nc3cc(Cl)ccc3Nc3ccccc32)CC1 | 184 °C
68 | O=c1cc(CO)occ1O | 154 °C
69 | Nc1ccc(S(=O)(=O)Nc2ccccn2)cc1 | 190 to 192 °C
70 | CCC(N)=O | 78 to 81.3 °C
71 | COc1cc(C#N)cc(OC)c1OC | 93 to 94 °C
72 | CC(=O)OC1CCC2(C)C(CC(=O)C3C4CCC(=O)C4(C)CCC32)C1 (stereo not given) | 164 to 165 °C
73 | Oc1cccc(Nc2ccccc2)c1 | 80 to 81.5 °C
74 | C/C=C/CC(C)C | -124 °C
75 | CC(=O)Oc1ccc(C(C)=O)cc1 | 53 to 54 °C
76 | Clc1ccc(-c2ccc(Cl)cc2)cc1 | 149 °C
77 | O=C=S | -139 °C
78 | CCO[Si](OCC)(OCC)OCC | -86 to -82.5 °C
79 | O=Cc1cc(O)ccc1O | 98 to 99 °C
80 | Nc1cc(Cl)cc(Cl)c1 | 51 to 53 °C
81 | O=[N+]([O-])c1ccc(C(F)(F)F)cc1 | 39 to 40 °C
82 | CCOC(=O)c1ccc(OC)cc1 | 7 to 8 °C
83 | CC(C)CC1CCCC1 | -115 °C
84 | Clc1cncc(Cl)c1 | 65 to 66 °C
85 | O=C1OC(=O)c2c(Cl)c(Cl)c(Cl)c(Cl)c21 | 254 to 256 °C
